Measurements published in patent US8791148B2, “Substituted benzimidazolone derivatives, medicaments comprising them and their use” (AbbVie Deutschland GmbH & Co. KG, priority 2006, dated 2014).
pKi: −log10 of the molar value.

Each molecule was assayed against T1, human vasopressin V1b receptor (Homo sapiens, UniProt P47901) (assay: Vasopressin V1b receptor binding assay). Conditions: membranes from CHO-K1 cells with stably expressed human V1b receptors; displacement of 1.5 nM 3H-AVP; read-out: V1b receptor affinity (affinity constant Ki).
T1 construct: expressed in transfected cells; host or cells: CHO-K1 (cell line hV1b-3H2_CHO), membrane preparation
T1 sequence (P47901 1-424): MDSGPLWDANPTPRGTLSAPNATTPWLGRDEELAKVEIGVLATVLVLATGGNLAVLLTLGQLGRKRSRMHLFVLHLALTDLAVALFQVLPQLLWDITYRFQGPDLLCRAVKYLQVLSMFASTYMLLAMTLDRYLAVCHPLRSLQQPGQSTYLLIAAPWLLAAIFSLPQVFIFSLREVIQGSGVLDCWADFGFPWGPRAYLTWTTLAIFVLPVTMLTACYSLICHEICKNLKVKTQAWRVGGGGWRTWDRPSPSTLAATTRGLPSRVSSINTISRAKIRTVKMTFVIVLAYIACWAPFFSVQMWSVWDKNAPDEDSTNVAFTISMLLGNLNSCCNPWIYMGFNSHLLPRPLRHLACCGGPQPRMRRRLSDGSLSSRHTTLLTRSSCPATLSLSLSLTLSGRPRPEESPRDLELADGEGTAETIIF
Outline: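 Ki values come from nonlinear regression of triplicate scintillation counts after filtration. Test compound (2% DMSO in the mixture) and radioligand were incubated 60 min at room temperature with human V1b membranes in pH 7.4 Tris buffer with 10 mM MgCl2 and 0.1% BSA. Nonspecific binding was set with 1 uM AVP.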

pKi | SMILES
6.30 to 7.00 | COc1ccc(S(=O)(=O)n2c(=O)n(C(C(=O)N3CCC[C@H](N)C3)c3ccccc3)c3cc(C#N)ccc32)cc1 (stereo partly drawn) [Example 240, 3-[2-((S)-3-Amino-piperidin-1-yl)-2-oxo-1-phenyl-ethyl]-1-(4-methoxybenzenesulfonyl)-2-oxo-2,3-dihydro-1H-benzoimidazole-5-carbonitrile]
5.00 to 6.30 | COc1ccc(S(=O)(=O)n2c(=O)n(C(C(=O)N3CCC[C@@H](N)C3)c3ccccc3)c3cc(C#N)ccc32)cc1 (stereo partly drawn) [Example 241, 3-[2-((R)-3-Amino-piperidin-1-yl)-2-oxo-1-phenyl-ethyl]-1-(4-methoxybenzenesulfonyl)-2-oxo-2,3-dihydro-1H-benzoimidazole-5-carbonitrile]
> 7.00 | COc1ccc(S(=O)(=O)n2c(=O)n(C(C(=O)N3CC[C@H](NCc4c[nH]cn4)C3)c3ccccc3)c3cc(C#N)ccc32)cc1 (stereo partly drawn) [Example 242, 3-(2-{(S)-3-[(1H-Imidazol-4-ylmethyl)-amino]-pyrrolidin-1-yl}-2-oxo-1-phenylethyl)-1-(4-methoxy-benzenesulfonyl)-2-oxo-2,3-dihydro-1H-benzoimidazole-5-carbonitrile; compound with trifluoroacetic acid]
5.00 to 6.30 | COc1ccc(S(=O)(=O)n2c(=O)n(C(C(=O)N3CC[C@H](NC4CCN(C(=O)OC(C)(C)C)CC4)C3)c3ccccc3)c3cc(C#N)ccc32)cc1 (stereo partly drawn) [Example 243, 4-((S)-1-{2-[6-Cyano-3-(4-methoxy-benzenesulfonyl)-2-oxo-2,3-dihydrobenzoimidazol-1-yl]-2-phenyl-acetyl}-pyrrolidin-3-ylamino)-piperidine-1-carboxylic acid tert-butyl ester]
> 7.00 | COc1ccc(S(=O)(=O)n2c(=O)n(C(C(=O)N3CC[C@H](NC4CCN(C(C)(C)C)CC4)C3)c3ccccc3)c3cc(C#N)ccc32)cc1 (stereo partly drawn) [Example 244, 3-{2-[(S)-3-(1-tert-Butyl-piperidin-4-ylamino)-pyrrolidin-1-yl]-2-oxo-1-phenylethyl}-1-(4-methoxy-benzenesulfonyl)-2-oxo-2,3-dihydro-1H-benzoimidazole-5-carbonitrile]
> 7.00 | COc1ccc(S(=O)(=O)n2c(=O)n(C(C(=O)N3CC[C@H](NC4CCN(CCF)CC4)C3)c3ccccc3)c3cc(C#N)ccc32)cc1 (stereo partly drawn) [Example 245, 3-(2-{(S)-3-[1-(2-Fluoro-ethyl)-piperidin-4-ylamino]-pyrrolidin-1-yl}-2-oxo-1-phenyl-ethyl)-1-(4-methoxy-benzenesulfonyl)-2-oxo-2,3-dihydro-1H-benzoimidazole-5-carbonitrile]
6.30 to 7.00 | COc1ccc(S(=O)(=O)n2c(=O)n(C(C(=O)N3CCC[C@H](NC4CCN(C)CC4)C3)c3ccccc3)c3cc(C#N)ccc32)cc1 (stereo partly drawn) [Example 246, 1-(4-Methoxy-benzenesulfonyl)-3-{2-[(S)-3-(1-methyl-piperidin-4-ylamino)-piperidin-1-yl]-2-oxo-1-phenyl-ethyl}-2-oxo-2,3-dihydro-1H-benzoimidazole-5-carbonitrile]
> 7.00 | COc1ccc(S(=O)(=O)n2c(=O)n(C(C(=O)N3CCC[C@H](NC4CCN(C(C)C)CC4)C3)c3ccccc3)c3cc(C#N)ccc32)cc1 (stereo partly drawn) [Example 247, 3-{2-[(S)-3-(1-Isopropyl-piperidin-4-ylamino)-piperidin-1-yl]-2-oxo-1-phenylethyl}-1-(4-methoxy-benzenesulfonyl)-2-oxo-2,3-dihydro-1H-benzoimidazole-5-carbonitrile]
6.30 to 7.00 | COc1ccc(S(=O)(=O)n2c(=O)n(C(C(=O)N3CCC[C@@H](NC4CCN(C)CC4)C3)c3ccccc3)c3cc(C#N)ccc32)cc1 (stereo partly drawn) [Example 248, 1-(4-Methoxy-benzenesulfonyl)-3-{2-[(R)-3-(1-methyl-piperidin-4-ylamino)-piperidin-1-yl]-2-oxo-1-phenyl-ethyl}-2-oxo-2,3-dihydro-1H-benzoimidazole-5-carbonitrile]
> 7.00 | COc1ccc(S(=O)(=O)n2c(=O)n(C(C(=O)N3CCC[C@@H](NC4CCN(C(C)C)CC4)C3)c3ccccc3)c3cc(C#N)ccc32)cc1 (stereo partly drawn) [Example 249, 3-{2-[(R)-3-(1-Isopropyl-piperidin-4-ylamino)-piperidin-1-yl]-2-oxo-1-phenylethyl}-1-(4-methoxy-benzenesulfonyl)-2-oxo-2,3-dihydro-1H-benzoimidazole-5-carbonitrile]
6.30 to 7.00 | COc1ccc(S(=O)(=O)n2c(=O)n(C(C(=O)N3CC[C@H](NC(=O)C4CCN(C)CC4)C3)c3ccccc3)c3cc(C#N)ccc32)cc1 (stereo partly drawn) [Example 252, 1-Methyl-piperidine-4-carboxylic acid ((S)-1-{2-[6-cyano-3-(4-methoxybenzenesulfonyl)-2-oxo-2,3-dihydro-benzoimidazol-1-yl]-2-phenyl-acetyl}-pyrrolidin-3-yl)-amide; compound with trifluoroacetic acid]
> 7.00 | COc1ccc(S(=O)(=O)n2c(=O)n(C(C(=O)N3CC[C@H](Nc4ccncc4)C3)c3ccccc3)c3cc(C#N)ccc32)cc1 (stereo partly drawn) [Example 253, 1-(4-Methoxy-benzenesulfonyl)-2-oxo-3-{2-oxo-1-phenyl-2-[(S)-3-(pyridine-4-ylamino)-pyrrolidin-1-yl]-ethyl}-2,3-dihydro-1H-benzoimidazole-5-carbonitrile; compound with trifluoroacetic acid]
6.30 to 7.00 | COc1ccc(S(=O)(=O)n2c(=O)n(C(C(=O)N3CC[C@H](Nc4ccnc(C)c4)C3)c3ccccc3)c3cc(C#N)ccc32)cc1 (stereo partly drawn) [Example 254, 1-(4-Methoxy-benzenesulfonyl)-3-{2-[(S)-3-(2-methyl-pyridine-4-ylamino)-pyrrolidin-1-yl]-2-oxo-1-phenyl-ethyl}-2-oxo-2,3-dihydro-1H-benzoimidazole-5-carbonitrile; compound with trifluoroacetic acid]
> 7.00 | COc1ccc(S(=O)(=O)n2c(=O)n(C(C(=O)N3CC[C@H](CNC4CCN(C)CC4)C3)c3ccccc3)c3cc(C#N)ccc32)cc1 (stereo partly drawn) [Example 255, 1-(4-Methoxy-benzenesulfonyl)-3-(2-{(R)-3-[(1-methyl-piperidin-4-ylamino)-methyl]-pyrrolidin-1-yl}-2-oxo-1-phenyl-ethyl)-2-oxo-2,3-dihydro-1H-benzoimidazole-5-carbonitrile; compound with trifluoroacetic acid]
> 7.00 | COc1ccc(S(=O)(=O)n2c(=O)n(C(C(=O)N3CC[C@H](CN(C)C4CCN(C)CC4)C3)c3ccccc3)c3cc(C#N)ccc32)cc1 (stereo partly drawn) [Example 256, 1-(4-Methoxy-benzenesulfonyl)-3-[2-((R)-3-{[methyl-(1-methyl-piperidin-4-yl)-amino]-methyl}-pyrrolidin-1-yl)-2-oxo-1-phenyl-ethyl]-2-oxo-2,3-dihydro-1H-benzoimidazole-5-carbonitrile; compound with trifluoroacetic acid]
